In patent US12077503B2, “Substituted cyclic amides and their use as herbicides” (FMC CORPORATION, priority 2015, dated 2024):

Key:
Type in all cases: in vivo
[1] = tested on: ivy-leaved morning glory (Ipomoea hederacea); experiment: Test G Post-Emergence Protocol; conditions: Ipomoea, post-emergence, 312 h
Method in brief: (§1)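 Scores run 0 (no damage) to 100 (total damage) and were taken 13 days after spraying. Plants had been raised in pots for 8 days under glasshouse control (24/16 °C, 14 h photoperiod, 65% humidity) and then treated at 15.625, 62.5 or 250 g/ha.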

[2] = tested on: velvetleaf (Abutilon theophrasti); experiment: Test G Post-Emergence Protocol; conditions: Abutilon theophrasti, post-emergence, 312 h
Method in brief: as §1

[3] = tested on: giant foxtail (Setaria faberi); experiment: Test G Post-Emergence Protocol; conditions: Setaria faberi, post-emergence, 312 h
Method in brief: as §1

[4] = tested on: barnyardgrass (Echinochloa crus-galli); experiment: Test G Post-Emergence Protocol; conditions: Echinochloa crus-galli, post-emergence, 312 h
Method in brief: as §1

[5] = tested on: redroot pigweed (Amaranthus retroflexus); experiment: Test G Post-Emergence Protocol; conditions: Amaranthus retroflexus, post-emergence, 312 h
Method in brief: as §1

corn (Zea mays) [6] = experiment: Test G Post-Emergence Protocol; conditions: Zea mays, post-emergence, 312 h
Method in brief: as §1

[7] = tested on: ivy-leaved morning glory (Ipomoea hederacea); experiment: Test G Pre-Emergence Protocol; conditions: Ipomoea, pre-emergence, 312 h, evaluated after 13 days
Method in brief: (§2)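 Under a 24/16° C day/night regime with 14 h light and 65% humidity, sown pots were sprayed after one day with compound (15.625, 62.5 or 250 g/ha; 50:50 acetone/water, 0.5% Tween 20). Damage was assessed visually 13 days later, 0 to 100.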

[8] = tested on: velvetleaf (Abutilon theophrasti); experiment: Test G Pre-Emergence Protocol; conditions: Abutilon theophrasti, pre-emergence, 312 h, evaluated after 13 days
Method in brief: as §2

[9] = tested on: giant foxtail (Setaria faberi); experiment: Test G Pre-Emergence Protocol; conditions: Setaria faberi, pre-emergence, 312 h, evaluated after 13 days
Method in brief: as §2

[10] = tested on: barnyardgrass (Echinochloa crus-galli); experiment: Test G Pre-Emergence Protocol; conditions: Echinochloa crus-galli, pre-emergence, 312 h, evaluated after 13 days
Method in brief: as §2

[11] = tested on: redroot pigweed (Amaranthus retroflexus); experiment: Test G Pre-Emergence Protocol; conditions: Amaranthus retroflexus, pre-emergence, 312 h, evaluated after 13 days
Method in brief: as §2

corn (Zea mays) [12] = experiment: Test G Pre-Emergence Protocol; conditions: Zea mays, pre-emergence, 312 h, evaluated after 13 days
Method in brief: as §2

CN1C[C@@H](c2ccc(C(F)(F)F)cc2)[C@H](C(=O)Nc2ccnc(Cl)n2)C1=O (racemic) [Compound 1544]
pest or weed control at 15.625 g/ha ([1]; 15.625 g ai/ha, evaluated after 13 days (100=total damage to plant; 0=no damage to plant), read-out: Morningglory, Ivy-leaved damage rating): 0%
pest or weed control at 62.5 g/ha ([1]; 62.5 g ai/ha, evaluated after 13 days, read-out: Morningglory, Ivy-leaved damage rating (100=total damage to plant; 0=no damage to plant)): 0%
pest or weed control at 250 g/ha ([1]; 250 g ai/ha, evaluated after 13 days, read-out: damage to plant, Morningglory, Ivy-leaved (100=total damage to plant; 0=no damage to plant)): 0%
pest or weed control at 15.625 g/ha ([2]; 15.625 g ai/ha, evaluated after 13 days (100=total damage to plant; 0=no damage to plant), read-out: Velvetleaf damage rating): 0%
pest or weed control at 62.5 g/ha ([2]; 62.5 g ai/ha, evaluated after 13 days, read-out: Velvetleaf damage rating (100=total damage to plant; 0=no damage to plant)): 0%
pest or weed control at 250 g/ha ([2]; 250 g ai/ha, evaluated after 13 days, read-out: damage to plant, Velvetleaf (100=total damage to plant; 0=no damage to plant)): 0%
pest or weed control at 15.625 g/ha ([3]; 15.625 g ai/ha, evaluated after 13 days (100=total damage to plant; 0=no damage to plant), read-out: Foxtail, Giant damage rating): 0%
pest or weed control at 62.5 g/ha ([3]; 62.5 g ai/ha, evaluated after 13 days, read-out: Foxtail, Giant damage rating (100=total damage to plant; 0=no damage to plant)): 0%
pest or weed control at 250 g/ha ([3]; 250 g ai/ha, evaluated after 13 days, read-out: damage to plant, Foxtail, Giant (100=total damage to plant; 0=no damage to plant)): 0%
pest or weed control at 15.625 g/ha ([4]; 15.625 g ai/ha, evaluated after 13 days (100=total damage to plant; 0=no damage to plant), read-out: Barnyardgrass damage rating): 0%
pest or weed control at 62.5 g/ha ([4]; 62.5 g ai/ha, evaluated after 13 days, read-out: Barnyardgrass damage rating (100=total damage to plant; 0=no damage to plant)): 0%
pest or weed control at 250 g/ha ([4]; 250 g ai/ha, evaluated after 13 days, read-out: damage to plant, Barnyardgrass (100=total damage to plant; 0=no damage to plant)): 0%
pest or weed control at 15.625 g/ha ([5]; 15.625 g ai/ha, evaluated after 13 days (100=total damage to plant; 0=no damage to plant), read-out: Pigweed, Redroot damage rating): 0%
pest or weed control at 62.5 g/ha ([5]; 62.5 g ai/ha, evaluated after 13 days, read-out: Pigweed, Redroot damage rating (100=total damage to plant; 0=no damage to plant)): 0%
pest or weed control at 250 g/ha ([5]; 250 g ai/ha, evaluated after 13 days, read-out: damage to plant, Pigweed, Redroot (100=total damage to plant; 0=no damage to plant)): 0%
plant injury at 15.625 g/ha (corn (Zea mays) [6]; 15.625 g ai/ha, evaluated after 13 days (100=total damage to plant; 0=no damage to plant), read-out: Corn damage rating): 10%
plant injury at 62.5 g/ha (corn (Zea mays) [6]; 62.5 g ai/ha, evaluated after 13 days, read-out: Corn damage rating (100=total damage to plant; 0=no damage to plant)): 10%
plant injury at 250 g/ha (corn (Zea mays) [6]; 250 g ai/ha, evaluated after 13 days, read-out: damage to plant, Corn (100=total damage to plant; 0=no damage to plant)): 10%
pest or weed control at 15.625 g/ha ([7]; 15.625 g ai/ha, read-out: Morning-glory, Ivy-leaved damage rating (100=total damage to plant; 0=no damage to plant)): 0%
pest or weed control at 62.5 g/ha ([7]; 62.5 g ai/ha, 100=total damage to plant, 0=no damage to plant, read-out: plant damage rating, Morningglory, Ivy-leaved): 0%
pest or weed control at 250 g/ha ([7]; 250 g ai/ha, read-out: Morningglory, Ivy-leaved damage rating (100=total damage to plant; 0=no damage to plant)): 0%
pest or weed control at 15.625 g/ha ([8]; 15.625 g ai/ha, read-out: Velvetleaf damage rating (100=total damage to plant; 0=no damage to plant)): 0%
pest or weed control at 62.5 g/ha ([8]; 62.5 g ai/ha, 100=total damage to plant, 0=no damage to plant, read-out: plant damage rating, Velvetleaf): 0%
pest or weed control at 250 g/ha ([8]; 250 g ai/ha, read-out: Velvetleaf damage rating (100=total damage to plant; 0=no damage to plant)): 0%
pest or weed control at 15.625 g/ha ([9]; 15.625 g ai/ha, read-out: Foxtail, Giant damage rating (100=total damage to plant; 0=no damage to plant)): 0%
pest or weed control at 62.5 g/ha ([9]; 62.5 g ai/ha, 100=total damage to plant, 0=no damage to plant, read-out: plant damage rating, Foxtail, Giant): 0%
pest or weed control at 250 g/ha ([9]; 250 g ai/ha, read-out: Foxtail, Giant damage rating (100=total damage to plant; 0=no damage to plant)): 0%
pest or weed control at 15.625 g/ha ([10]; 15.625 g ai/ha, read-out: Barnyard grass damage rating (100=total damage to plant; 0=no damage to plant)): 0%
pest or weed control at 62.5 g/ha ([10]; 62.5 g ai/ha, 100=total damage to plant, 0=no damage to plant, read-out: plant damage rating, Barnyardgrass): 0%
pest or weed control at 250 g/ha ([10]; 250 g ai/ha, read-out: Barnyardgrass damage rating (100=total damage to plant; 0=no damage to plant)): 0%
pest or weed control at 15.625 g/ha ([11]; 15.625 g ai/ha, read-out: Pigweed, Redroot damage rating (100=total damage to plant; 0=no damage to plant)): 0%
pest or weed control at 62.5 g/ha ([11]; 62.5 g ai/ha, 100=total damage to plant, 0=no damage to plant, read-out: plant damage rating, Pigweed, Redroot): 0%
pest or weed control at 250 g/ha ([11]; 250 g ai/ha, read-out: Pigweed, Redroot damage rating (100=total damage to plant; 0=no damage to plant)): 0%
plant injury at 15.625 g/ha (corn (Zea mays) [12]; 15.625 g ai/ha, read-out: Corn damage rating (100=total damage to plant; 0=no damage to plant)): 0%
plant injury at 62.5 g/ha (corn (Zea mays) [12]; 62.5 g ai/ha, 100=total damage to plant, 0=no damage to plant, read-out: plant damage rating, Corn): 0%
plant injury at 250 g/ha (corn (Zea mays) [12]; 250 g ai/ha, read-out: Corn damage rating (100=total damage to plant; 0=no damage to plant)): 0%
